Experimental data published in patent publication US8722903B2, “Indazole derivatives for the treatment of HSP9O-induced diseases” (Merck Patent GmbH, priority 2006, dated 2014).

Target: T1, Recombinant human HSP90α (Homo sapiens, UniProt P07900)
T1 construct: host or cells: E. coli
Assay: Radioligand filter binding test: competitive inhibition of [3H]17AAG binding to HSP90
Settings: [3H]17AAG 0.08 μM, HSP90 1.5 μg/assay, 22° C., 30 min
Protocol: In the specific case, a radioligand filter binding test is used. The radioligand used here is tritium-labelled 17-allylaminogeldanamycin, [3H]17AAG, This filter binding test allows a targeted search for inhibitors which interfere with the ATP binding site.
Recombinant human HSP90α (E. coli expressed, 95% purity);
HEPES filter buffer (50 mM HEPES, pH 7.0, 5 mM MgCl2, BSA 0.01%) Multiscreen FB (1 μm) filter plate (Millipore, MAFBNOB 50).
The 96-well microtitre filter plates are firstly irrigated and coated with 0.1% of polyethylenimine.
The test is carried out under the following conditions:
Reaction temperature 22° C.
Reaction time: 30 min., shaking at 800 rpm
50 mM HEPES HCl, pH 7.0, 5 mM MgCl2, 0.01% (w/v) of BSA
At the end of the reaction, the supernatant in the filter plate is removed by suction with the aid of a vacuum manifold (Multiscreen Separation System, Millipore), and the filter is washed twice.
The filter plates are then measured in a beta counter (Microbeta, Wallac) with scintillator (Microscint 20, Packard).
“% of control” is determined from the “counts per minutes” values, and the IC-50 value of a compound is calculated therefrom.

IC50	SMILES
> 10 µM	COCCN(C)C(=O)c1cc2c(Cc3ccccc3Cl)n[nH]c2cc1O [Compound A34, 5-[N-(2-Methoxyethyl)-N-methylaminocarbonyl]-3-(2-chlorobenzyl)-6-hydroxy-1H-indazole]
1 to 10 µM	CN(Cc1ccccc1)C(=O)c1cc2c(Cc3ccccc3Cl)n[nH]c2cc1O [Compound A32, 5-(N-Benzyl-N-methylaminocarbonyl)-3-(2-chlorobenzyl)-6-hydroxy-1H-indazole]
0.01 to 1 µM	CCCc1n[nH]c2cc(O)c(C(=O)N(C)c3ccc(OC)c(OC)c3)cc12 [Compound A174, 5-[N-(3,4-Dimethoxyphenyl)-N-methylaminocarbonyl]-3-propyl-6-hydroxy-1H-indazole]
0.01 to 1 µM	COc1cccc(CN(C)C(=O)c2cc3c(Cc4ccccc4)n[nH]c3cc2O)c1OC [Compound A23, 5-[N-(2,3-Dimethoxybenzyl)-N-methylaminocarbonyl]-3-benzyl-6-hydroxy-1H-indazole]
> 10 µM	COCCN(C)C(=O)c1cc2c(Cc3ccccc3C)n[nH]c2cc1O [Compound A45]
1 to 10 µM	CCCN(C)C(=O)c1cc2c(Cc3cccc(C)c3)n[nH]c2cc1O [Compound A38, 5-(N-Propyl-N-methylaminocarbonyl)-3-(3-methylbenzyl)-6-hydroxy-1H-indazole]
0.01 to 1 µM	Cc1cccc(Cc2n[nH]c3cc(O)c(C(=O)N(C)c4cccc(OC(F)(F)F)c4)cc23)c1 [Compound A154, 5-[N-(3-Trifluoromethoxyphenyl)-N-methylaminocarbonyl]-3-(3-methylbenzyl)-6-hydroxy-1H-indazole]
1 to 10 µM	CCCCN(C)C(=O)c1cc2c(Cc3ccccc3Cl)n[nH]c2cc1O [Compound A33, 5-(N-Butyl-N-methylaminocarbonyl)-3-(2-chlorobenzyl)-6-hydroxy-1H-indazole]
1 to 10 µM	CN(Cc1cccc(Cl)c1)C(=O)c1cc2c(Cc3ccccc3)n[nH]c2cc1O [Compound A10, 5-[N-(3-Chlorobenzyl)-N-methylaminocarbonyl]-3-benzyl-6-hydroxy-1H-indazole]
0.01 to 1 µM	COc1cccc(N(C)C(=O)c2cc3c(CC4CCCC4)n[nH]c3cc2O)c1 [Compound A257, 5-[N-(3-Methoxyphenyl)-N-methylaminocarbonyl]-3-cyclopentylmethyl-6-hydroxy-1H-indazole]
0.01 to 1 µM	CN(C(=O)c1cc2c(CC3CCCC3)n[nH]c2cc1O)c1ccc2c(c1)OCO2 [Compound A260, 5-[N-(Benzo-1,3-dioxol-5-yl)-N-methylaminocarbonyl]-3-cyclopentylmethyl-6-hydroxy-1H-indazole]
0.01 to 1 µM	CCCc1n[nH]c2cc(O)c(C(=O)N(C)Cc3ccccc3)cc12 [Compound A178, 5-(N-Benzyl-N-methylaminocarbonyl)-3-propyl-6-hydroxy-1H-indazole]
1 to 10 µM	COc1ccc(C)cc1CN(C)C(=O)c1cc2c(Cc3ccccc3)n[nH]c2cc1O [Compound A20, 5-[N-(2-Methoxy-5-methylbenzyl)-N-methylaminocarbonyl]-3-benzyl-6-hydroxy-1H-indazole]
1 to 10 µM	Cc1ccccc1Cc1n[nH]c2cc(O)c(C(=O)N(C)Cc3ccccc3)cc12 [Compound A44, 5-(N-Benzyl-N-methylaminocarbonyl)-3-(2-methylbenzyl)-6-hydroxy-1H-indazole]
1 to 10 µM	CCCN(C)C(=O)c1cc2c(CCc3ccccc3)n[nH]c2cc1O [Compound A182, 5-(N-Propyl-N-methylaminocarbonyl)-3-phenethyl-6-hydroxy-1H-indazole]
1 to 10 µM	CN(Cc1cccc2c1OCO2)C(=O)c1cc2c(Cc3ccccc3)n[nH]c2cc1O [Compound A30, 5-[N-(Benzo-1,3-dioxol-4-ylmethyl)-N-methylaminocarbonyl]-3-benzyl-6-hydroxy-1H-indazole]
1 to 10 µM	CCCN(C)C(=O)c1cc2c(Cc3ccc(C)c(C)c3)n[nH]c2cc1O [Compound A73, 5-(N-Propyl-N-methylaminocarbonyl)-3-(3,4-dimethylbenzyl)-6-hydroxy-1H-indazole]
0.01 to 1 µM	Cc1ccc(N(C)C(=O)c2cc3c(CC4CCCC4)n[nH]c3cc2O)cc1 [Compound A256, 5-[N-(4-Methylphenyl)-N-methylaminocarbonyl]-3-cyclopentylmethyl-6-hydroxy-1H-indazole]
0.01 to 1 µM	COc1cc(N(C)C(=O)c2cc3c(Cc4cccc(C)c4)n[nH]c3cc2O)ccc1N1CCN(C)CC1 [Compound A190, 5-{N-[3-Methoxy-4-(4-methylpiperazin-1-yl)phenyl]-N-methylaminocarbonyl}-3-(3-methylbenzyl)-6-hydroxy-1H-indazole]

IC50	SMILES
0.01 to 1 µM	CN(Cc1ccccc1)C(=O)c1cc2c(Cc3cccc(Cl)c3)n[nH]c2cc1O [Compound A40, 5-(N-Benzyl-N-methylaminocarbonyl)-3-(3-chlorobenzyl)-6-hydroxy-1H-indazole]
0.01 to 1 µM	CCc1ccc(CN(C)C(=O)c2cc3c(Cc4ccccc4)n[nH]c3cc2O)cc1 [Compound A28, 5-[N-(4-Ethylbenzyl)-N-methylaminocarbonyl]-3-benzyl-6-hydroxy-1H-indazole]
0.01 to 1 µM	CC(=O)N1CCc2cc(N(C)C(=O)c3cc4c(Cc5cccc(C)c5)n[nH]c4cc3O)ccc21 [Compound A157, 5-[N-(1-Acetyl-2,3-dihydro-1H-indol-5-yl)-N-methylaminocarbonyl]-3-(3-methylbenzyl)-6-hydroxy-1H-indazole]
0.01 to 1 µM	Cc1cccc(Cc2n[nH]c3cc(O)c(C(=O)N(C)c4ccc(CN5CCOCC5)cc4)cc23)c1 [Compound A191, 5-[N-(4-Morpholin-4-ylmethylphenyl)-N-methylaminocarbonyl]-3-(3-methylbenzyl)-6-hydroxy-1H-indazole]
1 to 10 µM	CCCCN(C)C(=O)c1cc2c(Cc3ccc(C)cc3)n[nH]c2cc1O [Compound A64, 5-(N-Butyl-N-methylaminocarbonyl)-3-(4-methylbenzyl)-6-hydroxy-1H-indazole]
0.01 to 1 µM	CN(Cc1ccccc1)C(=O)c1cc2c(CCc3ccccc3)n[nH]c2cc1O [Compound A181, 5-(N-Benzyl-N-methylaminocarbonyl)-3-phenethyl-6-hydroxy-1H-indazole]
0.01 to 1 µM	CCCN(C)C(=O)c1cc2c(Cc3cccc(Cl)c3)n[nH]c2cc1O [Compound A42, 5-(N-Propyl-N-methylaminocarbonyl)-3-(3-chlorobenzyl)-6-hydroxy-1H-indazole]
1 to 10 µM	COCCN(C)C(=O)c1cc2c(Cc3cccc(Cl)c3)n[nH]c2cc1O [Compound A41, 5-[N-(2-Methoxyethyl)-N-methylaminocarbonyl]-3-(3-chlorobenzyl)-6-hydroxy-1H-indazole]
0.01 to 1 µM	Cc1cccc(Cc2n[nH]c3cc(O)c(C(=O)N(C)Cc4ccc5c(c4)OCCO5)cc23)c1 [Compound A101, 5-[N-(2,3-Dihydrobenzo-1,4-dioxin-6-ylmethyl)-N-methylaminocarbonyl]-3-(3-methylbenzyl)-6-hydroxy-1H-indazole]
0.01 to 1 µM	CCCc1n[nH]c2cc(O)c(C(=O)N(C)c3ccc(CNS(C)(=O)=O)cc3)cc12 [Compound A177, 5-[N-(4-Methylsulfonylaminomethylphenyl)-N-methylaminocarbonyl]-3-propyl-6-hydroxy-1H-indazole]
0.01 to 1 µM	CCCCN(C)C(=O)c1cc2c(Cc3cccc(C)c3)n[nH]c2cc1O [Compound A25, 5-(N-Butyl-N-methylaminocarbonyl)-3-(3-methylbenzyl)-6-hydroxy-1H-indazole]
1 to 10 µM	CN(Cc1cccc(C(F)(F)F)c1)C(=O)c1cc2c(Cc3ccccc3)n[nH]c2cc1O [Compound A29, 5-[N-(3-Trifluoromethylbenzyl)-N-methylaminocarbonyl]-3-benzyl-6-hydroxy-1H-indazole]
0.01 to 1 µM	COc1ccc(N(C)C(=O)c2cc3c(Cc4cccc(C)c4)n[nH]c3cc2O)cc1OC [Compound A145, 5-[N-(3,4-Dimethoxyphenyl)-N-methylaminocarbonyl]-3-(3-methylbenzyl)-6-hydroxy-1H-indazole]
1 to 10 µM	COc1ccc(Cl)cc1CN(C)C(=O)c1cc2c(Cc3ccccc3)n[nH]c2cc1O [Compound A31, 5-[N-(3-Chloro-6-methoxybenzyl)-N-methylaminocarbonyl]-3-benzyl-6-hydroxy-1H-indazole]
0.01 to 1 µM	CN(Cc1ccccc1)C(=O)c1cc2c(Cc3ccccc3)n[nH]c2cc1O [Compound A6, 5-(N-Benzyl-N-methylaminocarbonyl)-3-benzyl-6-hydroxy-1H-indazole]
0.01 to 1 µM	COc1cccc(Cc2n[nH]c3cc(O)c(C(=O)N(C)c4ccc(CNS(C)(=O)=O)cc4)cc23)c1 [Compound A162, 5-[N-(4-Methylsulfonylaminomethylphenyl)-N-methylaminocarbonyl]-3-(3-methoxybenzyl)-6-hydroxy-1H-indazole]
1 to 10 µM	CCc1ccc(Cc2n[nH]c3cc(O)c(C(=O)N(C)Cc4ccccc4)cc23)cc1 [Compound A71, 5-(N-Benzyl-N-methylaminocarbonyl)-3-(4-ethylbenzyl)-6-hydroxy-1H-indazole]
0.01 to 1 µM	Cc1ccc(Cc2n[nH]c3cc(O)c(C(=O)N(C)c4ccccc4)cc23)cc1 [Compound A122, 5-(N-Phenyl-N-methylaminocarbonyl)-3-(4-methylbenzyl)-6-hydroxy-1H-indazole]
1 to 10 µM	CCCN(C)C(=O)c1cc2c(Cc3ccccc3)n[nH]c2cc1O [Compound A4, 5-(N-propyl-N-methylaminocarbonyl)-3-benzyl-6-hydroxy-1H-indazole]
